Drug uptake data for 1 molecule are collected here from ChEMBL document CHEMBL2069247, “A highly sensitive fluorescent viscosity sensor” (Bioorg Med Chem Lett, 2012).

Series [1] deals with HeLa. In words: Drug uptake in human HeLa cells at 5 uM after 2 hrs by fluorescence microscopic analysis. The class given is ADME, cell-based.
The subject of series [2] is HeLa. In words: Drug uptake in human HeLa cells measured immediately. It is filed as ADME, cell-based.

For the molecule `Cn1ccc2ccc(-c3ccc4c(-c5ccccc5C(=O)O)c5ccc(=O)cc-5oc4c3)cc21`, the Drug uptake result in the series on HeLa [1] and in the series on HeLa [2] was “Active” in each case.
